The values that follow are results of earlier work, collected in patent publication US6406713B1 (priority 1987, dated 2002).

Data set [1] concerns HTLV-III/LAV virus. Conditions: HTLV-III/LAV infected cell cultures.
Data set [2] relates to histoplasmosis. Conditions: mouse, in vivo.

Take `C[C@@H]1[C@H](O)[C@@H](C)/C=C/C=C/C=C/C=C/C=C/C=C/C=C/[C@H](O[C@@H]2O[C@H](C)[C@@H](O)[C@H](N)[C@@H]2O)C[C@@H]2O[C@](O)(C[C@@H](O)C[C@@H](O)[C@H](O)CC[C@@H](O)C[C@@H](O)CC(=O)O[C@H]1C)C[C@H](O)[C@H]2C(=O)O` [amphotericin B]: the “protection of target cells against cytopathic effects of the virus” value in data set [1] is given as “protected target cells against the cytopathic effects of the virus”.
Turning to `COC(=O)[C@H]1[C@@H]2C[C@@H](O[C@@H]3O[C@H](C)[C@@H](O)[C@H](N)[C@@H]3O)/C=C/C=C/C=C/C=C/C=C/C=C/C=C/[C@H](C)[C@@H](O)[C@@H](C)[C@H](C)OC(=O)C[C@H](O)C[C@H](O)CC[C@@H](O)[C@H](O)C[C@H](O)C[C@](O)(C[C@@H]1O)O2` [amphotericin B methyl ester], in data set [1], the “protection of target cells against cytopathic effects of the virus” value was “protected target cells against the cytopathic effects of the virus”.
Consider liposomal-amphotericin B, for which, in data set [2], the “serum and tissue distributions” value is “lower serum levels and higher liver and spleen concentrations”; the “toxicity versus free amphotericin B preparations” value is “less toxic”.
